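These data come from cells grown in 96-well plates and exposed to compound for 48 hours at five concentrations. Here, GI50 denotes the concentration required for 50% inhibition of growth.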 Activity calls are given as the source filed them. No stated cut-off is given here; in the data, active = GI50 up to about 1.1 µM and inactive = higher.
Assays:
Test in all cases: NCI tumour cell line growth inhibition, 48 h
[1] = system: SF-539
[2] = system: PC-3
[3] = system: OVCAR-4
[4] = system: HCT-116
[5] = system: SR
[6] = system: SF-295
[7] = system: DU-145
[8] = system: SF-268
[9] = system: EKVX
[10] = system: MDA-MB-231
[11] = system: SK-MEL-28
[12] = system: Malme-3M
[13] = system: 786-0
[14] = system: SK-MEL-5
[15] = system: UACC-62
[16] = system: ACHN
[17] = system: NCI-H23
[18] = system: HCC 2998
[19] = system: MDA-N

SMILES | GI50 [1] | GI50 [2] | GI50 [3] | GI50 [4] | GI50 [5] | GI50 [6] | GI50 [7] | GI50 [8] | GI50 [9] | GI50 [10] | GI50 [11] | GI50 [12] | GI50 [13] | GI50 [14] | GI50 [15] | GI50 [16] | GI50 [17] | GI50 [18] | GI50 [19]
COc1cc(O)ccc1C(=S)SC | 76.2 µM (inactive) | 47.2 µM (inactive) | 52 µM (inactive) | 80.9 µM (inactive) | 43.2 µM (inactive) | 60.3 µM (inactive) | > 100 µM (inactive) | 67.1 µM (inactive) | 11.4 µM (inactive) | 16.2 µM (inactive) | > 100 µM (inactive) | 39.2 µM (inactive) | > 100 µM (inactive) | 26.5 µM (inactive) | 28.3 µM (inactive) | 68.2 µM (inactive) | 40.6 µM (inactive) |  | 
CN(C)CCNC(=O)c1cccc(NC(=O)c2ccccc2)c1[N+](=O)[O-] |  | > 100 µM (inactive) |  | > 100 µM (inactive) |  | > 100 µM (inactive) | > 10 µM (inactive) | > 100 µM (inactive) |  | > 100 µM (inactive) | > 100 µM (inactive) | 12.8 µM (inactive) | > 100 µM (inactive) | 77.1 µM (inactive) | > 100 µM (inactive) | > 100 µM (inactive) | > 100 µM (inactive) | > 100 µM (inactive) | > 100 µM (inactive)
O=C1/C(=C/C=C/c2ccccc2)N=C(c2ccccc2)N1C1Nc2cc3c(cc2S1)NC(N1C(=O)/C(=C/C=C/c2ccccc2)N=C1c1ccccc1)S3 (stereo unspecified) | > 100 µM (inactive) | 65.2 µM (inactive) | 73.8 µM (inactive) | 28.1 µM (inactive) | < 0.01 µM (active) | 67.6 µM (inactive) | 38.8 µM (inactive) | 9.68 µM (inactive) | > 100 µM (inactive) | 31.6 µM (inactive) | 38.2 µM (inactive) |  | 45.9 µM (inactive) | 55 µM (inactive) |  | 41.8 µM (inactive) | 66.5 µM (inactive) | 11.4 µM (inactive) | 
CC(=O)SSC1(Cl)C(C)(C)C(Cl)(SSC(C)=O)C1(C)C (stereo unspecified) | 24.5 µM (inactive) | 41.3 µM (inactive) | 48.1 µM (inactive) | 44 µM (inactive) |  | 43.5 µM (inactive) | 29.6 µM (inactive) | 43.6 µM (inactive) | 39.9 µM (inactive) | > 100 µM (inactive) | > 100 µM (inactive) | 84.5 µM (inactive) | 49.2 µM (inactive) | 29.8 µM (inactive) | 52.6 µM (inactive) | 63.4 µM (inactive) | 57.1 µM (inactive) |  | 65 µM (inactive)
CN(C)c1nncc2[nH]nnc12 | > 100 µM (inactive) | > 100 µM (inactive) | > 100 µM (inactive) | > 100 µM (inactive) | > 100 µM (inactive) | > 100 µM (inactive) |  |  | > 100 µM (inactive) |  | > 100 µM (inactive) | 92.3 µM (inactive) | > 100 µM (inactive) | > 100 µM (inactive) | > 100 µM (inactive) | > 100 µM (inactive) | > 100 µM (inactive) | > 100 µM (inactive) | > 100 µM (inactive)
Cc1cc(C)c(S(=O)(=O)N2CCN(S(=O)(=O)c3c(C)cc(C)cc3C)OCCCCCO2)c(C)c1 |  | 6.22 µM (inactive) | > 100 µM (inactive) | > 100 µM (inactive) |  | > 100 µM (inactive) | > 100 µM (inactive) | > 100 µM (inactive) | > 100 µM (inactive) |  | > 100 µM (inactive) | > 100 µM (inactive) | > 100 µM (inactive) | > 100 µM (inactive) | > 100 µM (inactive) | > 100 µM (inactive) | > 100 µM (inactive) |  | > 100 µM (inactive)
